In patent US9133239B2, “Compositions and methods for inhibiting matrix metalloproteinase (MMP)-mediated cell migration” (THE RESEARCH FOUNDATION FOR THE STATE UNIVERSITY OF NEW YORK, priority 2010, dated 2015):
Read-outs that look alike come from different tables or passages of the source. Blank lines part the entries; values can stand above or below the compound they belong to. Where a SMILES comes first, the peptide text is derived from it. Where no end group is shown, it is not given here.

Experiments:
[1] = test system: GFP expressing MDA-MB-435 cells; test: Mammary fat pad tumor growth and lung metastasis model; assay type: in vivo, immunodeficient female mice; settings: 20 mg/kg/day i.p. and intratumoral alternatively; after twelve weeks
Method: 2×10^6 GFP expressing MDA-MB-435 cells were injected in the mammary fat pad of immunodeficient female mice followed by administering 20 mg/kg/day of specific and scrambled peptides via i.p. and intratumoral injection, alternatively. Primary tumor size was monitored over a 10-week time course. Inhibitory peptides had no effect on tumor growth (A). After twelve weeks, the mice were sacrificed and the organs were pathologically examined. The lungs were sliced into 3 mm thick sections. The incidence of lung metastasis was assessed by examining metastatic tumors in the lungs (B). The number (C) and size (D) of metastasized tumors in the lungs were microscopically counted based on GFP expression and measured using Nikon NIS Elements Imaging software, respectively.

[2] = test system: MT1-GFP expressing LNCaP cells; test: Cell surface E-cadherin shedding; assay type: cell-based, human
Method: To examine if shedding of E-cadherin at cell-cell adherens junctions correlated with loss of cell surface E-cadherin, biotinylation of cell surface proteins followed by streptavdin precipitation and Western blotting using anti-E-cadherin antibody was performed (51).

[3] = test system: MT1-GFP expressing LNCaP cells; test: FITC-labeled Matrigel degradation in the presence of proMMP-2; assay type: cell-based, human
Source text: To examine the role of MT1-MMP in invasion through basement membrane in an in vitro assay, we labeled Matrigel, a soluble basement membrane matrix from the EHS tumor with FITC. Western blotting using anti-type IV collagen and anti-laminin V antibodies confirmed that type IV collagen and laminin V remained intact in FITC-labeled Matrigel. Using FITC-labeled Matrigel-coated coverslips, LNCaP cells producing MT1-GFP were examined for Matrigel degradation. MT1-MMP expressing LNCaP cells readily degraded the FITC-labeled substrate (depicted by loss of fluorescence-labeled Matrigel in FIG. 31A-a).

MT1-GFP expressing cells = test: Combined FITC-labeled fibronectin substrate degradation and phagokinetic assay; assay type: cell-based
Source text: Using FITC-labeled gelatin coated coverslips and engineered MT1-MMP substitution mutations, structure-function relationships of MT1-MMP in cell invasion and migration were studied by domain shuffling experiments (FIG. 32A). As expected, MT1-MMP expressing cells degraded FITC-labeled gelatin and migrated over digested substrate (FIG. 32B). […] To examine the effect of proteolytic activity of MT1-MMP on cell migration, we employed a natural MMP inhibitor, TIMP-2 in combined FITC-labeled substrate degradation assay and phagokinetic assay (54) by coating coverslips with both FIT-labeled fibronectin and colloidal gold particles.

[4] = test system: MT1-GFP expressing LNCaP cells; test: Cell scattering in 3D type I collagen gel; assay type: cell-based, human; settings: TIMP-2 10 nM
Source text: Although increasing evidence highlight the importance of proteolytic remodeling of the ECM during invasion (65,66), recent reports have challenged this concept showing that the ability of tumor cells to migrate through collagenous barriers by switching to an amoeboid-like form was independent on proteinases (67). This observation, however, was possible due to reversible MMP inhibitors and low concentration of inhibitors (68). […] Employing a 3-dimensional (3D) culture in native type I collagen gel, we examined the cell scattering effect of MT1-GFP. […] GFP-alone expressing LNCaP cells formed spherical aggregates (FIG. 37A-a2-a3), while MT-GFP expressing LNCaP cells presented a scattered distribution in the gels (FIG. 37-b2-b3). H & E staining of frozen sections confirmed this observation (FIG. 37A-a4,b4).

cells expressing MT1-MMP = test: Flow cytometry binding to cells; settings: flow cytometry analysis
Source text: (§1) Based on our studies of the structure-function relationship of the MT1-MMP hemopexin (PEX)-like domain, we designed and synthesized peptides mimicking 8 amino acids of the outermost β strand of blades I, II, III and IV from the PEX domain, named IS4-8 ([…]) (SEQ ID NO:01), IIS4-8 ([…]) (SEQ ID NO:02), and IVS4-8 ([…]) (SEQ ID NO:03), respectively. Corresponding scrambled peptides were synthesized as controls. […] We further designed truncated forms of IS4-8 and IVS-8 peptides from the N- and C-terminus of the peptides. The C-terminal 5 amino acids of the IS4-8, named IS4-5 (GYPMP) (SEQ ID NO:04) is essential for inhibition of functional MT1-MMP. […] Thus, the PEX domain of MT1-MMP is a high-specificity target for interference with MT1-MMP-induced cancer cell invasion and for identification of cancer cells expressing MT1-MMP. These novel bi-functional inhibitory peptides will provide specificity with limited systemic toxicity.

[5] = test system: COS-1 cells transfected with MT1-MMP cDNA; test: Cell migration of MT1-MMP transfected COS-1 cells; assay type: cell-based
Source text: as §1

[6] = test system: human MDA-MB-231 breast cancer cells; test: Cell migration of MDA-MB-231 cells expressing endogenous MT1-MMP; assay type: cell-based
Source text: as §1

[7] = test system: human MDA-MB-231, and -435 breast cancer cells (-435); test: Cell migration of MDA-MB-435 cells expressing endogenous MT1-MMP; assay type: cell-based
Source text: as §1

[8] = test system: human HT1080 fibrosarcoma cells; test: Cell migration of HT1080 cells expressing endogenous MT1-MMP; assay type: cell-based
Source text: as §1

[9] = test system: cell migration induced by MMP-9; test: Cell migration induced by MMP-9 (specificity); assay type: cell-based
Source text: as §1
(§2) The term “specifically reduces cell migration that is mediated by MT1-MMP” when in reference to a composition means that the composition reduces cell migration that is mediated by MT1-MMP, in the absence of a reduction of cell migration that is mediated by MMP-9 and/or MT3-MMP and/or MT6-MMP (FIG. 7).

[10] = test system: cell migration induced by MT6-MMP; test: Cell migration induced by MT6-MMP (specificity); assay type: cell-based
Source text: as §1, §2

[11] = test system: human MDA-MB-231 breast cancer cell
[12] = test system: MT1-MMP-mediated cell migration (LNCaP); test: FITC-fibronectin degradation assay and Transwell chamber migration assay with GST-MTPEX; assay type: cell-based
Source text: Our results and others emphasized the critical role of the PEX domain of MT1-MMP in cells migration (8,57). […] As proof of this hypothesis, we generated chimeric cDNAs encoding GST and GST-MTPEX chimera.

[13] = test system: human breast cancer MCF-7 cells ectopically expressing MT1-MMP; test: proMMP-2 activation by gelatin zymography of conditioned medium; assay type: cell-based; settings: MCF-7 cells expressing MT1-MMP
Source text: The conditioned medium from human breast cancer MCF-7 cells ectopically expressing MT1-MMP in the presence of scrambled peptides or specific peptides was examined by gelatin zymography to determine whether interference with the PEX domain of MT1-MMP by the peptides also affects the proteolytic activity of MT1-MMP.

Compound: IVS4: MT1-MMP specific inhibitory IVS4 peptide given to mice in Example 27; probably IVS4-8 (GYPKSALR)
- lung metastasis (degree/number of metastasized tumors) [1]: reduced
- tumor foci area (size) in the lung [1]: tumor sizes in scramble peptide treated mice were noticeably larger

Compound: tissue inhibitor of matrix metalloproteinase-2 [TIMP-2]
- cell surface E-cadherin shedding [2]: interfered with cell surface E-cadherin shedding
- digestion of FITC-labeled Matrigel [3]: totally abolished the digestion of Matrigel
- substrate degradation (FITC-labeled fibronectin) (MT1-GFP expressing cells): interfered with substrate degradation
- scattered distribution of cells in type I collagen gel [4]: abolished

Compound: biotinylated IS4-5: biotinylated IS4-5 (GYPMP) peptide used for flow cytometry (also: biotinylated, position not given here)
- binding to cells expressing MT1-MMP (cells expressing MT1-MMP): specifically binds to cells expressing MT1-MMP

Compound: TIMP-1: recombinant TIMP-1, tissue inhibitor of metalloproteinases used as control inhibitor
- cell migration over Matrigel [3]: did not interfere with cell migration
- digestion of FITC-labeled Matrigel [3]: partial inhibition of substrate digestion

- IC50 [11]: 10000 nM
Compound: CC(C)C[C@H](NC(=O)[C@H](C)NC(=O)[C@H](CO)NC(=O)[C@H](CCCCN)NC(=O)[C@@H]1CCCN1C(=O)[C@H](Cc1ccc(O)cc1)NC(=O)CN)C(=O)N[C@@H](CCCNC(=N)N)C(=O)O [IVS4-8] (H-GYPKSALR-OH; N-terminus and C-terminus assumed)
- cell migration [5]: reduce cell migration
- cell migration [6]: reduce cell migration
- cell migration [7]: reduce cell migration
- cell migration [8]: reduce cell migration
- cell migration induced by MMP-9 [9]: do not affect cell migration
- cell migration induced by MT6-MMP [10]: do not affect cell migration

Compound: IS4: MT1-MMP specific inhibitory IS4 peptide given to mice in Example 27; length (IS4-8 or IS4-5) not stated (VMDGYPMP)
- lung metastasis (degree/number of metastasized tumors) [1]: reduced
- tumor foci area (size) in the lung [1]: tumor sizes in scramble peptide treated mice were noticeably larger

Compound: GST-tagged MTPEX protein: purified GST fusion protein of the PEX domain of MT1-MMP
- MT1-MMP-mediated cell migration [12]: inhibited MT1-MMP-mediated cell migration
- MT1-MMP-mediated cell migration ([12]; listed as MT1-MMPPEX): inhibited MT1-MMP-medicated LNCaP cell migration
- MT1-MMP-mediated cell migration ([12]; listed as recombinant MT1-PEX protein): blocked MT1-MMP-mediated cell migration

- IC50 [11]: 1500 nM
Compound: CSCC[C@H](NC(=O)[C@@H](N)C(C)C)C(=O)N[C@@H](CC(=O)O)C(=O)NCC(=O)N[C@@H](Cc1ccc(O)cc1)C(=O)N1CCC[C@H]1C(=O)N[C@@H](CCSC)C(=O)N1CCC[C@H]1C(=O)O [IS4-8] (H-VMDGYPMP-OH; N-terminus and C-terminus assumed)
- cell migration [5]: reduce cell migration
- cell migration [6]: reduce cell migration
- cell migration [7]: reduce cell migration
- cell migration [8]: reduce cell migration
- cell migration induced by MMP-9 [9]: do not affect cell migration
- cell migration induced by MT6-MMP [10]: do not affect cell migration
- MT1-MMP-induced proMMP-2 activation [13]: specifically inhibited

- IC50 [11]: 1500 nM
Compound: CSCC[C@H](NC(=O)[C@@H]1CCCN1C(=O)[C@H](Cc1ccc(O)cc1)NC(=O)CN)C(=O)N1CCC[C@H]1C(=O)O [IS4-5, GYPMP] (H-GYPMP-OH; N-terminus and C-terminus assumed)
- MT1-MMP-induced proMMP-2 activation [13]: specifically inhibited
